Test system: patients with MUM
Assay: Adverse events regardless of study drug relationship
Assay type: in vivo, human
Protocol: Routine safety assessments, including laboratory assessments, physical examinations, vital signs and electrocardiograms (ECGs), were conducted at regular intervals throughout the study and more frequently as needed following patient assessment by the treating physician. Adverse events (AEs) were assessed continuously according to the National Cancer Institute Common Terminology Criteria for Adverse Events (NCI-CTCAE) v4.03.

CC1(N)CCN(c2cccnc2NC(=O)c2nc(-c3ncccc3C(F)(F)F)cnc2N)CC1 [LXS196]
ALT increased, all grades (100 mg QD): 0 n (%) | ALT increased, grade ≥3 (100 mg QD): 0 n (%) | AST increased, all grades (100 mg QD): 0 n (%) | AST increased, grade ≥3 (100 mg QD): 0 n (%) | Abdominal pain upper, all grades (100 mg QD): 0 n (%) | Abdominal pain upper, grade ≥3 (100 mg QD): 0 n (%) | Asthenia, all grades (100 mg QD): 0 n (%) | Asthenia, grade ≥3 (100 mg QD): 0 n (%) | Blood creatinine increased, all grades (100 mg QD): 0 n (%) | Blood creatinine increased, grade ≥3 (100 mg QD): 0 n (%) | Constipation, all grades (100 mg QD): 1 (33.3) n (%) | Constipation, grade ≥3 (100 mg QD): 0 n (%) | Decreased appetite, all grades (100 mg QD): 0 n (%) | Decreased appetite, grade ≥3 (100 mg QD): 0 n (%) | Dermatitis acneiform, all grades (100 mg QD): 0 n (%) | Dermatitis acneiform, grade ≥3 (100 mg QD): 0 n (%) | Diarrhoea, all grades (100 mg QD): 2 (66.7) n (%) | Diarrhoea, grade ≥3 (100 mg QD): 0 n (%) | Dry skin, all grades (100 mg QD): 0 n (%) | Dry skin, grade ≥3 (100 mg QD): 0 n (%) | Fatigue, all grades (100 mg QD): 0 n (%) | Fatigue, grade ≥3 (100 mg QD): 0 n (%) | Hypotension, all grades (100 mg QD): 0 n (%) | Hypotension, grade ≥3 (100 mg QD): 0 n (%) | Nasopharyngitis, all grades (100 mg QD): 0 n (%) | Nasopharyngitis, grade ≥3 (100 mg QD): 0 n (%) | Nausea, all grades (100 mg QD): 2 (66.7) n (%) | Nausea, grade ≥3 (100 mg QD): 0 n (%) | Neutropenia, all grades (100 mg QD): 0 n (%) | Neutropenia, grade ≥3 (100 mg QD): 0 n (%) | Oedema peripheral, all grades (100 mg QD): 1 (33.3) n (%) | Oedema peripheral, grade ≥3 (100 mg QD): 0 n (%) | Patients with ≥1 AE, all grades (100 mg QD): 3 (100) n (%) | Patients with ≥1 AE, grade ≥3 (100 mg QD): 0 n (%) | Rash, all grades (100 mg QD): 0 n (%) | Rash, grade ≥3 (100 mg QD): 0 n (%) | Vomiting, all grades (100 mg QD): 2 (66.7) n (%) | Vomiting, grade ≥3 (100 mg QD): 0 n (%) | ALT increased, all grades (200 mg BID): 1 (16.7) n (%) | ALT increased, grade ≥3 (200 mg BID): 0 n (%) | AST increased, all grades (200 mg BID): 1 (16.7) n (%) | AST increased, grade ≥3 (200 mg BID): 0 n (%) | Abdominal pain upper, all grades (200 mg BID): 0 n (%) | Abdominal pain upper, grade ≥3 (200 mg BID): 0 n (%) | Asthenia, all grades (200 mg BID): 1 (16.7) n (%) | Asthenia, grade ≥3 (200 mg BID): 0 n (%) | Blood creatinine increased, all grades (200 mg BID): 3 (50.0) n (%) | Blood creatinine increased, grade ≥3 (200 mg BID): 0 n (%) | Constipation, all grades (200 mg BID): 1 (16.7) n (%) | Constipation, grade ≥3 (200 mg BID): 0 n (%) | Decreased appetite, all grades (200 mg BID): 1 (16.7) n (%) | Decreased appetite, grade ≥3 (200 mg BID): 0 n (%) | Dermatitis acneiform, all grades (200 mg BID): 1 (16.7) n (%) | Dermatitis acneiform, grade ≥3 (200 mg BID): 0 n (%) | Diarrhoea, all grades (200 mg BID): 3 (50.0) n (%) | Diarrhoea, grade ≥3 (200 mg BID): 0 n (%) | Dry skin, all grades (200 mg BID): 1 (16.7) n (%) | Dry skin, grade ≥3 (200 mg BID): 0 n (%) | Fatigue, all grades (200 mg BID): 0 n (%) | Fatigue, grade ≥3 (200 mg BID): 0 n (%) | Hypotension, all grades (200 mg BID): 0 n (%) | Hypotension, grade ≥3 (200 mg BID): 0 n (%) | Nasopharyngitis, all grades (200 mg BID): 1 (16.7) n (%) | Nasopharyngitis, grade ≥3 (200 mg BID): 0 n (%) | Nausea, all grades (200 mg BID): 3 (50.0) n (%) | Nausea, grade ≥3 (200 mg BID): 0 n (%) | Neutropenia, all grades (200 mg BID): 1 (16.7) n (%) | Neutropenia, grade ≥3 (200 mg BID): 0 n (%) | Oedema peripheral, all grades (200 mg BID): 2 (33.3) n (%) | Oedema peripheral, grade ≥3 (200 mg BID): 0 n (%) | Patients with ≥1 AE, all grades (200 mg BID): 6 (100) n (%) | Patients with ≥1 AE, grade ≥3 (200 mg BID): 3 (50.0) n (%) | Rash, all grades (200 mg BID): 0 n (%) | Rash, grade ≥3 (200 mg BID): 0 n (%) | Vomiting, all grades (200 mg BID): 0 n (%) | Vomiting, grade ≥3 (200 mg BID): 0 n (%) | ALT increased, all grades (200 mg QD): 1 (25.0) n (%) | ALT increased, grade ≥3 (200 mg QD): 0 n (%) | AST increased, all grades (200 mg QD): 0 n (%) | AST increased, grade ≥3 (200 mg QD): 0 n (%) | Abdominal pain upper, all grades (200 mg QD): 0 n (%) | Abdominal pain upper, grade ≥3 (200 mg QD): 0 n (%) | Asthenia, all grades (200 mg QD): 1 (25.0) n (%) | Asthenia, grade ≥3 (200 mg QD): 0 n (%) | Blood creatinine increased, all grades (200 mg QD): 1 (25.0) n (%) | Blood creatinine increased, grade ≥3 (200 mg QD): 0 n (%) | Constipation, all grades (200 mg QD): 3 (75.0) n (%) | Constipation, grade ≥3 (200 mg QD): 0 n (%) | Decreased appetite, all grades (200 mg QD): 1 (25.0) n (%) | Decreased appetite, grade ≥3 (200 mg QD): 0 n (%) | Dermatitis acneiform, all grades (200 mg QD): 0 n (%) | Dermatitis acneiform, grade ≥3 (200 mg QD): 0 n (%) | Diarrhoea, all grades (200 mg QD): 2 (50.0) n (%) | Diarrhoea, grade ≥3 (200 mg QD): 0 n (%) | Dry skin, all grades (200 mg QD): 0 n (%) | Dry skin, grade ≥3 (200 mg QD): 0 n (%) | Fatigue, all grades (200 mg QD): 0 n (%) | Fatigue, grade ≥3 (200 mg QD): 0 n (%) | Hypotension, all grades (200 mg QD): 0 n (%) | Hypotension, grade ≥3 (200 mg QD): 0 n (%) | Nasopharyngitis, all grades (200 mg QD): 0 n (%) | Nasopharyngitis, grade ≥3 (200 mg QD): 0 n (%) | Nausea, all grades (200 mg QD): 2 (50.0) n (%) | Nausea, grade ≥3 (200 mg QD): 1 (25.0) n (%) | Neutropenia, all grades (200 mg QD): 0 n (%) | Neutropenia, grade ≥3 (200 mg QD): 0 n (%) | Oedema peripheral, all grades (200 mg QD): 1 (25.0) n (%) | Oedema peripheral, grade ≥3 (200 mg QD): 0 n (%) | Patients with ≥1 AE, all grades (200 mg QD): 4 (100) n (%) | Patients with ≥1 AE, grade ≥3 (200 mg QD): 3 (75.0) n (%) | Rash, all grades (200 mg QD): 0 n (%) | Rash, grade ≥3 (200 mg QD): 0 n (%) | Vomiting, all grades (200 mg QD): 2 (50.0) n (%) | Vomiting, grade ≥3 (200 mg QD): 1 (25.0) n (%)

Reference: paper PMC10006169, “A phase I trial of LXS196, a protein kinase C (PKC) inhibitor, for metastatic uveal melanoma” (British Journal of Cancer, 2023)
